From patent US20040258754A1, “Compositions for oral administration of camptothecin and its analogs” (priority 2003, published 2004) come the findings set out here.

The nature of series [1]: Partitioning of topotecan into Pluronic F127 micelles (fluorescence). In kind it is physicochemical. The note with it: Pluronic F127 micelles vs aqueous phase, carrier 0.003% to 10%, topotecan 0.010 mM, 2 hrs at 37° C. The source says:
Partitioning coefficient P describes the tendency of molecules of topotecan to stay inside micelles formed by the carrier: P=[x]m/[x]w, where [x]m is the actual concentration of topotecan inside micelles, [x]w is the actual concentration of topotecan in aqueous phase. The carrier investigated in this example is pluronic F127 (BASF). Partitioning coefficient was estimated using the fluorescence dependence on the concentration of the carrier (Kabanov A. et al. (1995), Macromolecules 28, 2303-2314), by fitting the measured fluorescence of topotecan to the equation:
(Imax−I0)/(−I0)−1=1/(θP)−1/P
θ=0.01v([carrier]−CMCcarrier), volume portion of the micellar phase
CMCcarrier=0.02%—critical micelle concentration for Pluronic 127
v—partial specific volume of micelles, approximately v=0.8
[…]. The plate was dried in vacuum. Solutions of the carrier were applied to wells, 300 microliter to each well. The concentration of carrier in solutions varied from 0.003% to 10%. The final concentration of topotecan was 0.010 mM. The plate was incubated 2 hrs at 37° C., and the fluorescence of the solution (excitation 360 nm, emission 530 nm) was measured using plate reader FL600 (BioTek).

Series [2] in a line: Solubility of topotecan in formulations with Pluronic P85. In kind it is physicochemical. The following applies: thermodynamic from solid, read-out: Topotecan concentration (solubility). The procedure:
Calibration. Fluorescence of 0.300 mL samples of topotecan solutions in methanol containing between 0.00006 and 0.001 mg/mL, in triplicates on Helma Quarz plate, was measured using Bio-Tek FL600 fluorescence plate reader with excitation filter wavelength/bandwidth 360/40 nm and emission filter 530/25 nm, sensitivity 70. The average fluorescence was fitted to a linear equation and gave:
where C=topotecan concentration [mg/mL].
Solubility. 1 mg topotecan samples, in triplicates, and 1 mL of the respective buffer or carrier solution, were incubated at room temperature with shaking for 1 hour. The samples were then filtered through Acrodisc CR, PTFE Syringe filter, 4 mm diameter, 0.45 μm pore size Gelman part No. 4472. The filtrate was diluted 100 times with methanol, and the final concentration of topotecan was determined by fluorescence measurement using the above-described calibration.

Series [3] is described as follows: Stability of topotecan lactone in Pluronic P85 formulation (HPLC). In kind it is physicochemical. The following applies: 37° C., 0.3 mg/mL drug in PBS. As for the experimental part: The formulation was prepared by mixing the stock solution containing 6 mg/mL of topotecan in 0.1% aqueous acetic acid with the 2.05% P85 solutions in PBS 1:20 (v/v), to obtain final compositions containing 0.3 mg/mL drug in 1% P85. The control formulation was prepared by simple dilution of topotecan stock solution with PBS 1:20 (v/v). The initial time of incubation (O hour) is the time of mixing of the respective stock solutions. The samples were incubated at 37° C. in thermostat. After various time intervals (1, 2, 3, 6, and 10 hrs) […], a sample of formulation was taken, diluted 1000 times with the HPLC mobile phase, and injected into HPLC. The HPLC conditions were following:
(§1) C18 reversed phase column 250×4.6 mm, Phenomenex C18 (2) Luna, 5 μm, column temperature 40° C., flow rate 1 mL/min, injection volume 20 μL, fluorescence detection at wavelengths λexcitation=381 nm, λemission=525 nm, mobile phase 94% of 2% triethylamine acetate pH 5.5/6% acetonitrile, run time 7 min

A short description of series [4]: Plasma pharmacokinetics of topotecan upon i.v. administration. The following applies: normal rats, dose of 15 mg/mL. In kind it is in vivo. As for the experimental part: About 28 mg of topotecan were weighed and dissolved in 7 mL of isotonic solution. Topotecan was i.v. administered in normal rats at a dose of […].
(§2) After various time intervals (15, 30 min, 1, 3, 6, and 10 hrs) post-injection, the blood samples were collected.
The blood samples were collected from the jugular vein with the tube heparinized and kept immediately in ice for 5 to 10 min. Blood was immediately centrifuged, and plasma was separated. The plasma samples were immediately frozen in dry ice and stored at −80° C. until further use.
The aliquots (100 μL) of plasma samples were extracted with 400 μL of cold methanol. The supernatant was separated by centrifugation at 10000 RPM for 10 minutes and kept at −80° C. before HPLC analysis. The HPLC conditions were the following:
as §1
The topotecan lactone and topotecan carboxilate concentrations were calculated from the area under the peak (AUP) by using a calibration curve. The areas under the curves (AUC) were calculated by trapezoidal rule.

Series [5] in a line: Oral bioavailability of Pluronic P85 formulated and unformulated topotecan (gavage). In kind it is in vivo. The note with it: normal rats, oral gavage of solution, 15 mg/kg, plasma. The procedure:
About 15 mg of topotecan were weighed and dissolved in 5 mL of tap water for control, and about 15 mg of topotecan were dissolved in 5 mL of 1% P85 solution in tap water for formulation;
Both topotecan dosing solutions were orally administered by gavage in normal rats at a dose of 15 mg/kg. Three animals were used per each group.
as §2
The rats were anesthetized by general inhalation of Isoflurane (Bimeta-MTC, Animal Health Inc. Cambridge, ON, Canada).
The plasma sample collection, extraction and HPLC analysis were carried out with the same matter as is described in example 8.
The topotecan lactone and topotecan carboxylate concentrations were calculated from the area under the peak (AUP) by using a calibration curve. The areas under the curves (AUC) were calculated by trapezoidal rule.

A short description of series [6]: Oral administration of topotecan in capsules (control, microgel, microgel + L92). In kind it is in vivo, rats. The procedure:
(§3) About 30 mg of topotecan were weighed and mixed with 100 mg of the microgel. The mixture was dissolved in 5 mL of 70% ethanol and incubated for 16 hours at room temperature. Then, the half volume of solvent was evaporated in a stream of nitrogen. About 10 mL of 3% acetic acid were added to the mixture. The final mixture was lyophilized until dryness and loaded into the gelatin capsules.
About 30 mg of topotecan were weighed and loaded in gelatin capsules (3.75 mg/capsule).
The control and formulated topotecan in capsules were orally administered in normal rats at the dose of 15 mg/kg. The blood sample collection, extraction and HPLC analysis were the same as described in example 8.
as §3, with “microgel EGDMA and 30 mg of L92.” for “the microgel.”, “capsules. The topotecan formulation in capsules was orally administered in normal rats at the dose of 15 mg/kg. The blood sample collection, the extraction and HPLC analysis procedures were the same as in example 8.” for “capsules.”

[7] abbreviates: normal rats, oral gelatin capsules, 15 mg/kg, plasma.

In brackets after ≈: the same amount, converted by molar mass. Where two headings read alike, the source gives them in different places.

As for `CC[C@@]1(O)C(=O)OCc2c1cc1n(c2=O)Cc2cc3c(CN(C)C)c(O)ccc3nc2-1` [Topotecan, topotecan], the “partitioning coefficient P=[x]m/[x]w” value in series [1] is “about 1”. The solubility at 1 h is 95 ± 5 µg/mL (≈ 225 µM) in series [2] (1% Pluronic P85 in PBS, aqueous with cosolvent or surfactant or cyclodextrin, P85 1% in PBS pH 7.2, room temperature); 105 ± 5 µg/mL (≈ 249 µM) in series [2] (3% Pluronic P85 in PBS, aqueous with cosolvent or surfactant or cyclodextrin, P85 3% in PBS pH 7.2, room temperature); 62 ± 5 µg/mL (≈ 147 µM) in series [2] (aqueous buffer, PBS pH 7.2, room temperature). The topotecan lactone stability is 100.0 % of 0 h in series [3] (0 hour); 76.0 % of 0 h in series [3] (1 hour); 56.4 % of 0 h in series [3] (2 hours); 49.7 % of 0 h in series [3] (3 hours); 45.9 % of 0 h in series [3] (6 hours); 44.8 % of 0 h in series [3] (10 hours). In addition, the “Ratio AUC0-10 h Lac/Car” value in series [4] came to 0.3; in series [5] it was 1.2; in series [6] (setting [7]), 0.6. The “Ratio Cmax Lac/Car” value is 0.4 in series [4], 1.2 in series [5] and 0.8 in series [6] (setting [7]). For the same compound, the AUC(0-t) in series [4] (rat, iv, read-out: AUC0-10 h, topotecan Lactone) was determined as 454 ng·h/mL; in series [5] (rat, read-out: AUC0-10 h, topotecan Lactone) it was 80.5 ng·h/mL; in series [6] (rat, normal rats, oral gelatin capsules, 15 mg/kg, plasma, read-out: AUC0-10 h, topotecan Lactone) it was 52.8 ng·h/mL. Besides, the highest concentration (Cmax) – broadly, the maximum level reached in the sampled fluid or tissue – in series [4] (rat, iv, read-out: Cmax, topotecan Lactone) was 321 ng/mL; in series [5] (rat, read-out: Cmax, topotecan Lactone) it was 20.3 ng/mL; in series [6] (rat, normal rats, oral gelatin capsules, 15 mg/kg, plasma, read-out: Cmax, topotecan Lactone) it was 9.8 ng/mL. Further, the “AUC Ratio Oral Vs I.V.” value in series [6] (Lac/Car AUC ratio, oral capsules 15 mg/kg vs i.v., rats) is on record as 2.0. Moreover, the “Cmax Ratio Oral Vs I.V.” value in series [6] (Lac/Car Cmax ratio, oral capsules 15 mg/kg vs i.v., rats) was 2.0.
